Measured values published in US20080274522A1, “METHOD FOR THE PRODUCTION OF 2-BUTANONE” (priority 2007, published 2008).

Test system: Lactobacillus plantarum PN0512
Experiment: Growth of L. plantarum PN0512 in the presence of butanols at different temperatures (OD600)
Assay type: cell-based
Set-up: key to Growth of L. plantarum PN0512 in the presence of 1-butanol / Growth of L. plantarum PN0512 in the presence of isobutanol / Growth of L. plantarum PN0512 in the presence of 2-butanol: +: growth observed as an increase in OD600.; −: no growth observed, i.e. no change in OD600
Experimental: Tolerance levels of bacterial strain Lactobacillus plantarum PN0512 (ATCC # PTA-7727) were determined at 25° C., 30° C. and 37° C. as follows. The strain was cultured in S30L medium (i.e., 10 mM ammonium sulfate, 5 mM potassium phosphate buffer, pH 7.0, 50 mM MOPS, pH 7.0, 2 mM MgCl2, 0.7 mM CaCl2, 50 μM MnCl2, 1 μM FeCl3, 1 μM ZnCl2, 1.72 μM CuCl2, 2.53 μM COCl2, 2.42 μM Na2MoO4, 2 μM thiamine hydrochloride, 10 mM glucose, and 0.2% yeast extract). An overnight culture in the absence of any test compound was started in 15 mL of the S30L medium in a 150 mL flask, with incubation at 37° C. in a shaking water bath. The next morning, the overnight culture was diluted into three 500 mL flasks containing 150 mL of fresh medium to an initial OD600 of about 0.08. Each flask was incubated in a shaking water bath, one each at 25° C., 30° C. and 37° C. Each large culture was allowed to acclimate at the test temperature for at least 0.5 h. […] Growth was followed by measuring OD600 for six hours after addition of the compounds.

`CCC(C)O` (centres unmarked) [2-butanol] was tested, and the “Growth of L. plantarum PN0512 in the presence of 2-butanol” value (“Growth of L. plantarum PN0512” below) (1.8 % w/v, 37° C.) was “+”, the “Growth of L. plantarum PN0512” value (2.1 % w/v, 37° C.) was “+” and the “Growth of L. plantarum PN0512” value (2.9 % w/v, 25° C.) was “+”. The “Growth of L. plantarum PN0512” value (2.9 % w/v, 30° C.) was “+”, the “Growth of L. plantarum PN0512” value (2.9 % w/v, 37° C.) was “+” and the “Growth of L. plantarum PN0512” value (3.1 % w/v, 37° C.) was “+”. For the same compound, the “Growth of L. plantarum PN0512” value (3.6 % w/v, 37° C.) was “+”, the “Growth of L. plantarum PN0512” value (3.8 % w/v, 25° C.) was “+” and the “Growth of L. plantarum PN0512” value (3.8 % w/v, 30° C.) was “+”. For the same compound, the “Growth of L. plantarum PN0512” value (3.8 % w/v, 37° C.) was “+”, the “Growth of L. plantarum PN0512” value (4.0 % w/v, 30° C.) was “+” and the “Growth of L. plantarum PN0512” value (4.3 % w/v, 25° C.) was “+”. For the same compound, the “Growth of L. plantarum PN0512” value (4.3 % w/v, 30° C.) was “+”, the “Growth of L. plantarum PN0512” value (4.3 % w/v, 37° C.) was “+” and the “Growth of L. plantarum PN0512” value (4.7 % w/v, 25° C.) was “+”. For the same compound, the “Growth of L. plantarum PN0512” value (4.7 % w/v, 30° C.) was “+”, the “Growth of L. plantarum PN0512” value (4.7 % w/v, 37° C.) was “−” and the “Growth of L. plantarum PN0512” value (4.9 % w/v, 25° C.) was “+”. The “Growth of L. plantarum PN0512” value (4.9 % w/v, 30° C.) was “−”, the “Growth of L. plantarum PN0512” value (5.2 % w/v, 25° C.) was “+” and the “Growth of L. plantarum PN0512” value (5.2 % w/v, 37° C.) was “−”. The “Growth of L. plantarum PN0512” value (5.6 % w/v, 25° C.) was “−”, the “Growth of L. plantarum PN0512” value (5.6 % w/v, 37° C.) was “−” and the “Growth of L. plantarum PN0512” value (6.0 % w/v, 37° C.) was “−”. The “Growth of L. plantarum PN0512” value (6.4 % w/v, 37° C.) was “−”, the “Growth of L. plantarum PN0512” value (7.3 % w/v, 37° C.) was “−” and the “Concentration in which growth was observed” value (25° C.) was 5.2%. The “Concentration in which growth was not observed” value (30° C.) was 4.9%, the “Concentration in which growth was observed” value (30° C.) was 4.7% and the “Concentration in which growth was not observed” value (37° C.) was 4.5%. For the same compound, the “Concentration in which growth was observed” value (37° C.) was 4.3% and the “Growth of L. plantarum PN0512” value ([…] w/v, 30° C.) was “+”.
